According to US20260097022A1, “COMPOUNDS AND USES THEREOF” (Integrated Biosciences, Inc., priority 2023, published 2026):

What was measured:
[1] = target: BRD4 (Homo sapiens, UniProt O60885); assay: BRD4 inhibition; format: biochemical
[2] = target: T1, Bcl-2 (Homo sapiens, UniProt P10415); assay: BCL-2 TR-FRET, inhibition of Bcl-2 binding to a peptide ligand; conditions: at micromolar concentrations
T1 construct: purchased BPS Bioscience 50222
Procedure: BCL-2 TR-FRET. Inhibition of Bcl-2 binding to a peptide ligand was measured using the BCL-2 TR-FRET Assay Kit from BPS Bioscience (BPS Bioscience 50222). Briefly, the provided BCL TR-FRET assay buffer was diluted 1:3 with ultrapure Milli-Q water. The anti-His terbium-labeled donor and dye-labeled acceptor were each diluted 1:100 with diluted assay buffer. The BCL-2 peptide ligand was thawed on ice and diluted 1:40 with diluted assay buffer, and BCL-2 protein was diluted with diluted assay buffer to a working concentration of 1 ng/μL. Test compounds at the indicated final concentrations were prepared as stock 10% DMSO solutions in ultrapure Milli-Q water. The reaction was performed by combining 5 μL diluted donor. 5 μL diluted acceptor. 2 μL test compound. 5 μL diluted ligand, and 3 μL diluted protein in each well of the provided white, flat-bottom 384-well plate. Positive control reactions had 2 μL 10% DMSO in water in lieu of test compound. Negative control reactions had 2 μL 10% DMSO in water and 5 μL diluted assay buffer in lieu of test compound and diluted ligand. Reactions were incubated at room temperature for 3 hours, and fluorescent intensities were measured using a SpectraMax® M5 plate reader and manufacturer software (SoftMax Pro 6) with the following TR-FRET settings; for terbium-labeled donor emission, ex/em. 340/620 nm: lag time. 100 μs: integration time. 500 μs: for dye-acceptor emission, ex/em. 340/665 nm: lag time. 100 μs; integration time. 500 μs. The TR-FRET ratio. 665 nm emission/620 nm emission, was calculated for all reactions, and percentage activity was calculated by linearly interpolating the positive and negative control TR-FRET ratio values between relative activity values of 0) and 1. Experiments were performed in biological duplicate and repeated on independent occasions.

[3] = target: Bcl-XL (Homo sapiens, UniProt Q07817); assay: Bcl-XL TR-FRET; format: binding
[4] = tested on: late-passage IMR-90 cells; assay: Replicative senescence model, resazurin cell viability; format: cell-based, human; conditions: early- versus late-passage IMR-90 cells
Procedure: Cell culture. Human lung fibroblast (IMR-90) cells were obtained from ATCC (CCL-186) and passaged less than 10 times (less than 30 population doublings) for all experiments described in this example, with the exception of high-passage cells used in the model of replicative senescence (see the section on Replicative senescence below). Cells were cultured in growth media comprising Eagle's Minimum Essential Medium (EMEM: ATCC 30-2003) supplemented with 10% fetal bovine serum (FBS: Thermo Fisher 16140071) and 1% penicillin-streptomycin (Thermo Fisher 15070063). Cells were incubated in a humidity-controlled incubator at 37° C., with 5% CO2. Cells were detached using trypsin-EDTA (0.05%; Gibco 25300120).
Cells were then plated as described below.
Chemical screening. For all screening experiments. 99 μL of cells were plated into each well of a 96-well clear flat-bottom, black polystyrene tissue-culture-treated plate (Corning 3904) at a density of ˜10+ cells/well. Plates were incubated overnight for adhesion. The day after plating. […] After an additional 1 day of incubation, the fluorescence excitation/emission at 550/590 nm was read using a SpectraMaxR M3 plate reader and manufacturer software (SoftMax Pro R 6). […]
Calculation of cellular viability values in dose-response curves. […] For each sample, the fluorescence intensity value was normalized by the mean of two untreated control values. […]

[5] = tested on: HEK293 cells; assay: Cytotoxicity against HEK293 cells (resazurin); format: cell-based, human; conditions: 3 days treatment, curve-fitting, two biological replicates
Procedure: Measuring cytotoxicity against HepG2 and HEK293 cells. Cytotoxicity in human embryonic kidney (HEK293) and liver carcinoma (HepG2) cells was assayed as above using a resazurin assay. Cells were obtained from ATCC (ATCC CRL-1573 and HB-8065), passaged <10 times, and grown in Dulbecco's modification of Eagle's Medium (DMEM: Corning 10^−013-CV) supplemented with 10% FBS and 1% penicillin-streptomycin. 99 μL of cells were plated into each well of a 96-well clear flat-bottom, black polystyrene tissue-culture-treated plate at a density of ˜10+ cells/well, and plates were incubated overnight for adhesion. The day after plating. 1 μL of each compound, prepared as two-fold serial dilutions of 5 mM stock solutions in DMSO, was added to each well. Cells were incubated for 3 days, after which resazurin was added to each well to a final concentration of 0.15 mM. After an additional 1 day of incubation, the fluorescence excitation/emission at 550/590 nm was read using a SpectraMax M3 plate reader. Experiments were performed in biological duplicate. IC50 values were determined by normalizing with respect to the fluorescence intensity values of untreated control cells on day 3, as described in Calculation of cellular viability values in dose-response curves above.

[6] = target: Mcl-1 (Homo sapiens, UniProt Q07820); assay: Mcl-1 TR-FRET; format: binding
Sequence of Mcl-1 (Q07820 whole entry, species assumed): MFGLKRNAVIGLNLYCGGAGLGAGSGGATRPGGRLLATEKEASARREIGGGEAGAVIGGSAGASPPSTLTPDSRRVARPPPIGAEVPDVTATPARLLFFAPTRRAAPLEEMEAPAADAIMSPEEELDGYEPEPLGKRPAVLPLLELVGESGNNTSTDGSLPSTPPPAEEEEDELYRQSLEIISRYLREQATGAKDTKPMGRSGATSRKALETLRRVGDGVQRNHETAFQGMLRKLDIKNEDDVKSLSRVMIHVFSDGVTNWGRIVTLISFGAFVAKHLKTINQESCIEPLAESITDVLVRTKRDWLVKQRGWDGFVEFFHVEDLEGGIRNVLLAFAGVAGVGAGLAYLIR

T1 sequence (P10415 whole entry): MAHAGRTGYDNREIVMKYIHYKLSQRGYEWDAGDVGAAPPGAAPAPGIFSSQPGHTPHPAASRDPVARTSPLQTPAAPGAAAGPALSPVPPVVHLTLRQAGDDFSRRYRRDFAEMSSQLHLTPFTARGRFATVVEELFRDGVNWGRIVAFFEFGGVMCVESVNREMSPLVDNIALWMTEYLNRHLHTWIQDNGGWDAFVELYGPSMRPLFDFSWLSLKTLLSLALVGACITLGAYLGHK
Sequence of Bcl-XL (Q07817 whole entry): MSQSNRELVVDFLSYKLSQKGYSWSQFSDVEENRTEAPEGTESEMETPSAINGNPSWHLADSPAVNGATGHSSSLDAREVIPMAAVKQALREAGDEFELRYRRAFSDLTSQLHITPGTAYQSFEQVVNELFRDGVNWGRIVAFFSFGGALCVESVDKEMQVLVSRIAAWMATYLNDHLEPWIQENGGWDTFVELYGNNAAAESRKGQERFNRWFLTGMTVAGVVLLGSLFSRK

Structure (SMILES)	IC50 [1]	inhibition of Bcl-2 binding activity to a peptide ligand [2]	IC50 [3]	selectivity against late-passage Sncs compared with ABT-737 [4]	IC50 [5]	IC50 [6]	IC50 ([5]; Homo sapiens, HEK293, 72 h)
O=C(Nc1ccc(S(=O)(=O)Nc2ncccn2)cc1)c1ccc(-c2ccccc2)cc1 [BRD-K20733377]	~10 µM	inhibited Bcl-2	~1 µM	similarly selective	51.1 µM	–	–
COc1ccc(C(=O)Nc2ccc3nc(SCC(=O)Nc4ccccc4F)sc3c2)cc1OC [compound 6]	–	inhibited Bcl-2	–	–	–	≥ 100 µM	21.4 µM
Cc1ccccc1C(=O)Nc1ccc2nc(SCC(=O)Nc3ccccc3)sc2c1 [compound 19]	–	inhibited Bcl-2	–	less	–	–	160 µM
